Legend:
[1] = human gut metagenome, 24 h, 2 µM
[2] = human gut metagenome, 24 h, 2 µM; remark: listed apart in the source
[3] = human gut metagenome, 24 h, 2 µM; remark: listed apart in the source
[4] = human gut metagenome, 24 h, 2 µM; remark: listed apart in the source
[5] = The drug is tested on WLS-082 corresponding to human gut metagenome with ENA study accession number: PRJEB37062 and ENA sample accession number: ERS12561751 for biotransformation under anaerobic condition. The drug concentrations were measured over 9 timepoints collected between 0 and 24 hours of incubation by liquid-chromatography-coupled mass spectrometry (LC–MS); conditions: 2 µM
[6] = The drug is tested on Z-007 corresponding to rat gut metagenome with ENA study accession number: PRJEB37062 and ENA sample accession number: ERS12561807 for biotransformation under anaerobic condition. The drug concentrations were measured over 9 timepoints collected between 0 and 24 hours of incubation by liquid-chromatography-coupled mass spectrometry (LC–MS); conditions: 2 µM
[7] = The drug is tested on WLS-052 corresponding to human gut metagenome with ENA study accession number: PRJEB37062 and ENA sample accession number: ERS12561747 for biotransformation under anaerobic condition. The drug concentrations were measured over 9 timepoints collected between 0 and 24 hours of incubation by liquid-chromatography-coupled mass spectrometry (LC–MS); conditions: 2 µM
[8] = human gut metagenome, 24 h, 2 µM; remark: listed apart in the source
[9] = human gut metagenome, 24 h, 2 µM; remark: listed apart in the source
[10] = The drug is tested on WLS-098 corresponding to human gut metagenome with ENA study accession number: PRJEB37062 and ENA sample accession number: ERS12561754 for biotransformation under anaerobic condition. The drug concentrations were measured over 9 timepoints collected between 0 and 24 hours of incubation by liquid-chromatography-coupled mass spectrometry (LC–MS); conditions: 2 µM
[11] = human gut metagenome, 24 h, 2 µM; remark: listed apart in the source
[12] = human gut metagenome, 24 h, 2 µM; remark: listed apart in the source
[13] = The drug is tested on WLS-006 corresponding to human gut metagenome with ENA study accession number: PRJEB37062 and ENA sample accession number: ERS12561741 for biotransformation under anaerobic condition. The drug concentrations were measured over 9 timepoints collected between 0 and 24 hours of incubation by liquid-chromatography-coupled mass spectrometry (LC–MS); conditions: 2 µM
[14] = The drug is tested on Z-023 corresponding to metagenome with ENA study accession number: PRJEB37062 and ENA sample accession number: ERS12561822 for biotransformation under anaerobic condition. The drug concentrations were measured over 9 timepoints collected between 0 and 24 hours of incubation by liquid-chromatography-coupled mass spectrometry (LC–MS); conditions: 2 µM
[15] = human gut metagenome, 24 h, 2 µM; remark: listed apart in the source
[16] = The drug is tested on Z-020 corresponding to rabbit gut metagenome with ENA study accession number: PRJEB37062 and ENA sample accession number: ERS12561819 for biotransformation under anaerobic condition. The drug concentrations were measured over 9 timepoints collected between 0 and 24 hours of incubation by liquid-chromatography-coupled mass spectrometry (LC–MS); conditions: 2 µM
[17] = The drug is tested on Z-002 corresponding to rabbit gut metagenome with ENA study accession number: PRJEB37062 and ENA sample accession number: ERS12561802 for biotransformation under anaerobic condition. The drug concentrations were measured over 9 timepoints collected between 0 and 24 hours of incubation by liquid-chromatography-coupled mass spectrometry (LC–MS); conditions: 2 µM
[18] = The drug is tested on Z-018 corresponding to pig gut metagenome with ENA study accession number: PRJEB37062 and ENA sample accession number: ERS12561817 for biotransformation under anaerobic condition. The drug concentrations were measured over 9 timepoints collected between 0 and 24 hours of incubation by liquid-chromatography-coupled mass spectrometry (LC–MS); conditions: 2 µM
[19] = human gut metagenome, 24 h, 2 µM; remark: listed apart in the source
[20] = The drug is tested on WLS-170 corresponding to human gut metagenome with ENA study accession number: PRJEB37062 and ENA sample accession number: ERS12561762 for biotransformation under anaerobic condition. The drug concentrations were measured over 9 timepoints collected between 0 and 24 hours of incubation by liquid-chromatography-coupled mass spectrometry (LC–MS); conditions: 2 µM
Further: call rule not given here.

Structure (SMILES) | Bacterial Biotransformation [1] | Bacterial Biotransformation [2] | Bacterial Biotransformation [3] | Bacterial Biotransformation [4] | Bacterial Biotransformation [5] | Bacterial Biotransformation [6] | Bacterial Biotransformation [7] | Bacterial Biotransformation [8] | Bacterial Biotransformation [9] | Bacterial Biotransformation [10] | Bacterial Biotransformation [11] | Bacterial Biotransformation [12] | Bacterial Biotransformation [13] | Bacterial Biotransformation [14] | Bacterial Biotransformation [15] | Bacterial Biotransformation [16] | Bacterial Biotransformation [17] | Bacterial Biotransformation [18] | Bacterial Biotransformation [19] | Bacterial Biotransformation [20]
CCOc1ccc(NC(C)=O)cc1 [PHENACETIN] | Compound NOT metabolized | Compound NOT metabolized | Compound NOT metabolized | Compound NOT metabolized | Compound NOT metabolized | Compound NOT metabolized | Compound NOT metabolized | Compound NOT metabolized | Compound NOT metabolized | Compound NOT metabolized | Compound NOT metabolized | Compound NOT metabolized | Compound NOT metabolized | Compound NOT metabolized | Compound NOT metabolized | Compound NOT metabolized | Compound NOT metabolized | Compound NOT metabolized | Compound NOT metabolized | Compound NOT metabolized
CC(C(=O)O)c1ccc2c(c1)Cc1cccnc1O2 (stereo not given) [PRANOPROFEN] | Compound metabolized | Compound metabolized | Compound metabolized | Compound metabolized | Compound metabolized | Compound NOT metabolized | Compound metabolized | Compound metabolized | Compound metabolized | Compound metabolized | Compound metabolized | Compound metabolized | Compound metabolized | Compound metabolized | Compound metabolized | Compound metabolized | Compound metabolized | Compound metabolized | Compound metabolized | Compound metabolized
CCc1nc(N)nc(N)c1-c1ccc(Cl)cc1 [PYRIMETHAMINE] | Compound NOT metabolized | Compound NOT metabolized | Compound NOT metabolized | Compound NOT metabolized | Compound NOT metabolized | Compound NOT metabolized | Compound NOT metabolized | Compound NOT metabolized | Compound NOT metabolized | Compound metabolized | Compound NOT metabolized | Compound NOT metabolized | Compound NOT metabolized | Compound NOT metabolized | Compound NOT metabolized | Compound NOT metabolized | Compound metabolized | Compound NOT metabolized | Compound metabolized | Compound NOT metabolized

The remaining lines, values ahead:

Bacterial Biotransformation [1] | Bacterial Biotransformation [2] | Bacterial Biotransformation [3] | Bacterial Biotransformation [4] | Bacterial Biotransformation [5] | Bacterial Biotransformation [6] | Bacterial Biotransformation [7] | Bacterial Biotransformation [8] | Bacterial Biotransformation [9] | Bacterial Biotransformation [10] | Bacterial Biotransformation [11] | Bacterial Biotransformation [12] | Bacterial Biotransformation [13] | Bacterial Biotransformation [14] | Bacterial Biotransformation [15] | Bacterial Biotransformation [16] | Bacterial Biotransformation [17] | Bacterial Biotransformation [18] | Bacterial Biotransformation [19] | Bacterial Biotransformation [20] | Structure (SMILES)
Compound NOT metabolized | Compound NOT metabolized | Compound NOT metabolized | Compound NOT metabolized | Compound NOT metabolized | Compound NOT metabolized | Compound NOT metabolized | Compound NOT metabolized | Compound NOT metabolized | Compound NOT metabolized | Compound NOT metabolized | Compound NOT metabolized | Compound NOT metabolized | Compound metabolized | Compound NOT metabolized | Compound NOT metabolized | Compound metabolized | Compound NOT metabolized | Compound NOT metabolized | Compound NOT metabolized | COc1ccccc1OCC(O)CN1CCN(CC(=O)Nc2c(C)cccc2C)CC1 (stereo not given) [RANOLAZINE]
Compound metabolized | Compound NOT metabolized | Compound NOT metabolized | Compound NOT metabolized | Compound NOT metabolized | Compound NOT metabolized | Compound NOT metabolized | Compound NOT metabolized | Compound NOT metabolized | Compound NOT metabolized | Compound NOT metabolized | Compound NOT metabolized | Compound metabolized | Compound metabolized | Compound metabolized | Compound NOT metabolized | Compound NOT metabolized | Compound NOT metabolized | Compound NOT metabolized | Compound metabolized | CCCc1nn(C)c2c(=O)[nH]c(-c3cc(S(=O)(=O)N4CCN(C)CC4)ccc3OCC)nc12.O=C(O)CC(O)(CC(=O)O)C(=O)O [SILDENAFIL CITRATE]
Compound NOT metabolized | Compound NOT metabolized | Compound NOT metabolized | Compound NOT metabolized | Compound NOT metabolized | Compound NOT metabolized | Compound NOT metabolized | Compound NOT metabolized | Compound NOT metabolized | Compound NOT metabolized | Compound NOT metabolized | Compound NOT metabolized | Compound NOT metabolized | Compound metabolized | Compound NOT metabolized | Compound NOT metabolized | Compound NOT metabolized | Compound NOT metabolized | Compound NOT metabolized | Compound NOT metabolized | CN1C(C(=O)Nc2ccccn2)=C(O)c2sccc2S1(=O)=O [TENOXICAM]

Reference: ChEMBL document CHEMBL5724914, “Linking interpersonal differences in gut microbiota composition and drug biotransformation activity” (2024)
